# Measured values from PubChem BioAssay (NCI).
# Values joined by “and” are separate entries in the source; they are usually repeats but may differ in a detail not shown here. Identical values can stand only once.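 These data come from cells grown in 96-well plates and exposed to compound for 48 hours at five concentrations. GI50 = concentration required for 50% inhibition of growth. TGI is the concentration that stops growth completely.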
# How the values were obtained:
# Assay in all cases: NCI tumour cell line growth inhibition, 48 h
# [1] = tested on: SK-MEL-28 melanoma
# [2] = tested on: UACC-62 melanoma
# [3] = tested on: SNB-75 CNS
# [4] = tested on: XF 498 CNS
# [5] = tested on: M14 melanoma
# [6] = tested on: HOP-18 NSCLC
# [7] = tested on: LOX IMVI melanoma
# [8] = tested on: TK-10 renal
# [9] = tested on: HCT-15 colon
# [10] = tested on: HOP-92 NSCLC
# [11] = tested on: SK-MEL-2 melanoma
# [12] = tested on: A549 NSCLC
# [13] = tested on: K-562 leukemia
# [14] = tested on: HS 578T breast
# [15] = tested on: NCI/ADR-RES ovarian
# [16] = tested on: NCI-H226 lung
# [17] = tested on: CCRF-CEM leukemia
# [18] = tested on: U251 CNS
# [19] = tested on: IGROV1 ovarian
# [20] = tested on: EKVX NSCLC
# [21] = tested on: COLO 205 colon
# [22] = tested on: HT29 colon
# [23] = tested on: NCI-H23 lung
# [24] = tested on: RXF 393 renal
# [25] = tested on: NCI-H460 lung
# [26] = tested on: MOLT-4 leukemia
# [27] = tested on: MCF7 breast
# [28] = tested on: HCT-116 colon
# [29] = tested on: DLD-1 colon
# [30] = tested on: BT-549 breast
# [31] = tested on: P388 leukemia
# [32] = tested on: SF-539 CNS
smiles,measurement,setting,value
O=C1C=C2C(=CCOC2O)O1 (configuration not stated),GI50,[1],1.28 µM and 2.37 µM
same,TGI,[1],3.38 µM and 5.83 µM
same,GI50,[2],1.55 µM
same,TGI,[2],1.64 µM and 3.2 µM
same,GI50,[3],2.82 µM
same,TGI,[3],10.1 µM and 13.2 µM
same,TGI,[4],0.419 µM
same,GI50,[5],1.59 µM
same,TGI,[5],3.08 µM
same,TGI,[6],4.77 µM
same,GI50,[7],0.227 µM and 1.57 µM
same,TGI,[7],0.665 µM and 3.33 µM
same,GI50,[8],0.259 µM
same,TGI,[8],0.652 µM
same,GI50,[9],1.25 µM
same,TGI,[9],1.98 µM and 3.23 µM
same,GI50,[10],2.64 µM
same,TGI,[10],6.11 µM and 7.84 µM
same,TGI,[11],13.6 µM
same,GI50,[12],5.51 µM
same,TGI,[12],21.2 µM and 22.2 µM
same,GI50,[13],0.905 µM and 1.79 µM
same,TGI,[13],3.22 µM and 10.7 µM
same,GI50,[14],2.14 µM
same,TGI,[14],9.84 µM
same,GI50,[15],2.76 µM
same,TGI,[15],4.35 µM and 12.5 µM
same,TGI,[16],6.92 µM
same,GI50,[17],1.11 µM
same,TGI,[17],0.709 µM and 6.03 µM
same,GI50,[18],6.92 µM and 2.65 µM
same,TGI,[18],14.6 µM and 10 µM
same,GI50,[19],2.59 µM
same,TGI,[19],9.78 µM and 6.24 µM
same,GI50,[20],1.76 µM and 10.6 µM
same,TGI,[20],4.64 µM and 40.4 µM
same,GI50,[21],0.395 µM and 0.655 µM
same,TGI,[21],1.04 µM and 1.97 µM
same,GI50,[22],6.05 µM and 1.16 µM
same,TGI,[22],22.7 µM and 3.37 µM
same,GI50,[23],2.73 µM
same,TGI,[23],4.14 µM and 10.6 µM
same,GI50,[24],0.213 µM and 1.1 µM
same,TGI,[24],0.761 µM and 3 µM
same,GI50,[25],3.86 µM
same,TGI,[25],2.41 µM and 18.3 µM
same,GI50,[26],3.66 µM
same,TGI,[26],1.61 µM and 10.7 µM
same,TGI,[27],17.3 µM and 13.7 µM
same,GI50,[28],1.14 µM
same,TGI,[28],0.544 µM and 2.4 µM
same,TGI,[29],2.07 µM
same,GI50,[30],3.28 µM
same,TGI,[30],9.67 µM
same,TGI,[31],0.439 µM
same,GI50,[32],0.941 µM and 1.77 µM
same,TGI,[32],2.13 µM and 4.57 µM
